Source: PMC12196486, “Search for Antiviral Preparations in Series of New Derivatives of N-Substituted Piperidines” (Molecules, 2025)
Values after ≈ are worked out from the molar mass of the structure shown. “Also recorded” adds a separate entry of the source. Where a name gives a salt, the structure may show the parent alone. Read-outs that look alike come from different tables or passages of the source.

Legend:
[1] = test system: influenza A/Swine/Iowa/30 (H1N1) virus; assay type: cell-based; details: for Antiviral activity relative to oseltamivir (Tamiflu): concentrations corresponding to 1/2 of CC50; for Efficacy relative to commercially available oseltamivir: at similar or lower concentrations
[2] = Cytotoxicity in vitro, MTT test on MDCK cell culture; details: dog
in vitro = details: dog

## CCCN1CCC(O)(C(=O)O)CC1 [3b, Hydrochloride of 1-propyl-4-carboxy-4-hydroxypiperidine]
[1]; 0.15 mg/mL, PC titre 5.0 ± 0
  Titre in HAU: 5.0 ± 0 log2
[1]; 0.30 mg/mL, PC titre 5.0 ± 0
  Titre in HAU: 5.0 ± 0 log2
[1]; 0.59 mg/mL, PC titre 5.0 ± 0
  Titre in HAU: 5.0 ± 0 log2
[1]; 1.19 mg/mL, PC titre 5.0 ± 0
  Titre in HAU: 5.0 ± 0 log2
[1]; 2.38 mg/mL, PC titre 5.0 ± 0
  Titre in HAU: 4.4 ± 0.6 log2
[1]; 4.75 mg/mL (maximum tested concentration)
  Reduction of virus replication: 1.0 log2
[1]; 4.75 mg/mL, PC titre 5.0 ± 0
  Titre in HAU: 4.0 ± 0 log2
[1]
  Antiviral activity relative to oseltamivir (Tamiflu): slightly inferior; also recorded: significantly lower antiviral activity
[2]
  CC50 at 72 h: 9500 ± 364 µg/mL

## O=C(OC1(C(=O)O)CCN(Cc2ccccc2)CC1)C1CC1 [5c, Hydrochloride of 1-benzyl-4-cyclopropanoyloxy-piperidine-4-carboxylic acid]
[1]; 0.058 mg/mL, PC titre 5.0 ± 0
  Titre in HAU: 5.0 ± 0 log2
[1]; 0.116 mg/mL, PC titre 5.0 ± 0
  Titre in HAU: 5.0 ± 0 log2
[1]; 0.231 mg/mL, PC titre 5.0 ± 0
  Titre in HAU: 5.0 ± 0 log2
[1]; 0.463 mg/mL, PC titre 5.0 ± 0
  Titre in HAU: 5.0 ± 0 log2
[1]; 0.925 mg/mL, PC titre 5.0 ± 0
  Titre in HAU: 4.4 ± 0.6 log2
[1]; 1.85 mg/mL (maximum investigated concentration)
  Suppression of virus replication compared to the control group: 1.2 log2
[1]; 1.850 mg/mL, PC titre 5.0 ± 0
  Titre in HAU: 3.8 ± 1.1 log2
[1]; concentrations below 1.85 mg/mL
  Antiviral effect at the other concentrations tested: No statistically significant antiviral effect
[1]; concentrations equivalent to 1/2 CC50
  Level of antiviral activity relative to rimantadine: comparable to that of rimantadine
[2]
  CC50 at 72 h: 3700 ± 189 µg/mL

## O=C(OC1(C(=O)O)CCN(CCc2ccccc2)CC1)C1CC1 [5d, Hydrochloride of 1-(2-phenylethyl)-4-cyclopropanoyloxy-piperidine-4-carboxylic acid]
[1]; 0.0025 mg/mL, PC titre 6.0 ± 0
  Titre in HAU: 6.0 ± 0 log2
[1]; 0.0050 mg/mL, PC titre 6.0 ± 0
  Titre in HAU: 6.0 ± 0 log2
[1]; 0.0100 mg/mL, PC titre 6.0 ± 0
  Titre in HAU: 6.0 ± 0 log2
[1]; 0.0200 mg/mL, PC titre 6.0 ± 0
  Titre in HAU: 6.0 ± 0 log2
[1]; 0.04 mg/mL
  Reduction of virus replication: 1.2 log2
[1]; 0.0400 mg/mL, PC titre 6.0 ± 0
  Titre in HAU: 4.8 ± 0.5 log2
[1]; 0.08 mg/mL
  Reduction of virus replication: 2.0 log2
[1]; 0.0800 mg/mL, PC titre 6.0 ± 0
  Titre in HAU: 4.0 ± 0 log2
[1]
  Antiviral activity relative to oseltamivir (Tamiflu): slightly inferior
[2]
  CC50 at 72 h: 160 ± 6 µg/mL

## CC(N)C12CC3CC(CC(C3)C1)C2 (stereo not shown) [Rimantadine, reference compound]
[1]; 0.003 mg/mL, PC titre 6.0 ± 0
  Titre in HAU: 4.2 ± 0.4 log2
[1]; 0.005 mg/mL, PC titre 6.0 ± 0
  Titre in HAU: 4.2 ± 0.4 log2
[1]; 0.010 mg/mL, PC titre 6.0 ± 0
  Titre in HAU: 4.2 ± 0.4 log2
[1]; 0.020 mg/mL, PC titre 6.0 ± 0
  Titre in HAU: 4.2 ± 0.4 log2
[1]; 0.040 mg/mL, PC titre 6.0 ± 0
  Titre in HAU: 4.2 ± 0.4 log2
[1]; 0.080 mg/mL, PC titre 6.0 ± 0
  Titre in HAU: 4.2 ± 0.4 log2
In vitro
  CC50 at 72 h: 160 ± 11 µg/mL (≈ 892 µM)

## CCOC(=O)C1=C[C@@H](OC(CC)CC)[C@H](NC(C)=O)[C@@H](N)C1 [Tamiflu, oseltamivir, reference compound]
[1]; 0.01 mg/mL, PC titre 5.0 ± 0
  Titre in HAU: 4.0 ± 0 log2
[1]; 0.02 mg/mL, PC titre 5.0 ± 0
  Titre in HAU: 4.0 ± 0 log2
[1]; 0.04 mg/mL, PC titre 5.0 ± 0
  Titre in HAU: 3.0 ± 0 log2
[1]; 0.08 mg/mL, PC titre 5.0 ± 0
  Titre in HAU: 3.0 ± 0 log2
[1]; 0.17 mg/mL, PC titre 5.0 ± 0
  Titre in HAU: 2.4 ± 0.5 log2
[1]; 0.33 mg/mL, PC titre 5.0 ± 0
  Titre in HAU: 2.4 ± 0.5 log2
[1]; 0.02 and 0.01 mg/mL
  Reduction of viral load: 1.0 log2
[1]; 0.08 and 0.04 mg/mL
  Reduction of viral load: 2.0 log2
[1]; 0.33 and 0.17 mg/mL
  Reduction in the reproduction of 100 infectious doses of the virus: 2.6 log2
[2]
  CC50 at 72 h: 660 ± 91 µg/mL (≈ 2110 µM)

## O=C(OC1CCN(Cc2ccccc2)CC1)c1ccc(C(F)(F)F)cc1 [compound 8, Hydrochloride of 1-benzyl-4-trifluoromethylbenzoyloxy-piperidine]
[1]; 0.0011 mg/mL, PC titre 6.0 ± 0
  Titre in HAU: 6.0 ± 0 log2
[1]; 0.0022 mg/mL, PC titre 6.0 ± 0
  Titre in HAU: 6.0 ± 0 log2
[1]; 0.0044 mg/mL, PC titre 6.0 ± 0
  Titre in HAU: 6.0 ± 0 log2
[1]; 0.0088 mg/mL, PC titre 6.0 ± 0
  Titre in HAU: 5.0 ± 0 log2
[1]; 0.0175 mg/mL, PC titre 6.0 ± 0
  Titre in HAU: 5.0 ± 0 log2
[1]; 0.035 mg/mL
  Reduction of viral load: 2.0 log2
[1]; 0.0350 mg/mL, PC titre 6.0 ± 0
  Titre in HAU: 4.0 ± 0 log2
[1]; 0.0175 and 0.0088 mg/mL
  Reduction of viral load: 1.0 log2
[1]
  Efficacy relative to commercially available oseltamivir: comparable efficacy
  Antiviral activity relative to oseltamivir (Tamiflu): slightly inferior
[2]
  CC50 at 72 h: 70 ± 5 µg/mL

## O=C(ON=C1CCN(Cc2ccccc2)CC1)c1c(F)cccc1F [compound 11, Hydrochloride of 1-benzyl-4-(2,6-difluoro-benzoyloxymino) piperidine]
[1]; 0.0020 mg/mL, PC titre 6.0 ± 0
  Titre in HAU: 6.0 ± 0 log2
[1]; 0.0041 mg/mL, PC titre 6.0 ± 0
  Titre in HAU: 6.0 ± 0 log2
[1]; 0.0081 mg/mL, PC titre 6.0 ± 0
  Titre in HAU: 6.0 ± 0 log2
[1]; 0.0163 mg/mL, PC titre 6.0 ± 0
  Titre in HAU: 6.0 ± 0 log2
[1]; 0.0325 mg/mL, PC titre 6.0 ± 0
  Titre in HAU: 4.0 ± 0 log2
[1]; 0.0650 mg/mL, PC titre 6.0 ± 0
  Titre in HAU: 4.0 ± 0 log2
[1]; 0.0650 and 0.0325 mg/mL
  Inhibition of replication of 100 infectious doses compared to the control group: 2.0 log2
[1]
  Efficacy relative to commercially available oseltamivir: comparable efficacy
  Antiviral activity relative to oseltamivir (Tamiflu): slightly inferior
[2]
  CC50 at 72 h: 130 ± 2 µg/mL
